How the values were obtained:
A549 = experiment: Growth inhibition of human A549/ATCC cells incubated for 48 hrs by sulforhodamine B assay; format: functional; details: A549, 48 h; for CC50: read-out: LC50 (the source's name)
HOP-62 = experiment: Growth inhibition of human HOP62 cells incubated for 48 hrs by sulforhodamine B assay; format: functional; details: HOP-62, 48 h; for CC50: read-out: LC50 (the source's name)
NCI-H226 = experiment: Growth inhibition of human NCI-H226 cells incubated for 48 hrs by sulforhodamine B assay; format: functional; details: NCI-H226, 48 h; for CC50: read-out: LC50 (the source's name)
NCI-H322M = experiment: Growth inhibition of human NCI-H322M cells incubated for 48 hrs by sulforhodamine B assay; format: functional; details: for CC50: read-out: LC50 (the source's name)
NCI-H522 = experiment: Growth inhibition of human NCI-H522 cells incubated for 48 hrs by sulforhodamine B assay; format: functional; details: NCI-H522, 48 h; for CC50: read-out: LC50 (the source's name)
HCT-116 = experiment: Growth inhibition of human HCT116 cells incubated for 48 hrs by sulforhodamine B assay; format: functional; details: HCT-116, 48 h
HCT-15 = experiment: Growth inhibition of human HCT15 cells incubated for 48 hrs by sulforhodamine B assay; format: functional; details: HCT-15, 48 h
HT-29 = experiment: Growth inhibition of human HT-29 cells incubated for 48 hrs by sulforhodamine B assay; format: functional; details: HT-29, 48 h; for CC50: read-out: LC50 (the source's name)
SW-620 = experiment: Growth inhibition of human SW620 cells incubated for 48 hrs by sulforhodamine B assay; format: functional; details: SW-620, 48 h
M14 = experiment: Growth inhibition of human M14 cells incubated for 48 hrs by sulforhodamine B assay; format: functional; details: M14, 48 h; for CC50: read-out: LC50 (the source's name)
SK-MEL-2 = experiment: Growth inhibition of human SK-MEL-2 cells incubated for 48 hrs by sulforhodamine B assay; format: functional; details: SK-MEL-2, 48 h; for CC50: read-out: LC50 (the source's name)
SK-MEL-28 = experiment: Growth inhibition of human SK-MEL-28 cells incubated for 48 hrs by sulforhodamine B assay; format: functional; details: SK-MEL-28, 48 h; for CC50: read-out: LC50 (the source's name)
SK-MEL-5 = experiment: Growth inhibition of human SK-MEL-5 cells incubated for 48 hrs by sulforhodamine B assay; format: functional; details: SK-MEL-5, 48 h; for CC50: read-out: LC50 (the source's name)
UACC-257 = experiment: Growth inhibition of human UACC257 cells incubated for 48 hrs by sulforhodamine B assay; format: functional; details: UACC-257, 48 h; for CC50: read-out: LC50 (the source's name)
OVCAR-3 = experiment: Growth inhibition of human OVCAR3 cells incubated for 48 hrs by sulforhodamine B assay; format: functional; details: OVCAR-3, 48 h; for CC50: read-out: LC50 (the source's name)
A498 = experiment: Growth inhibition of human A498 cells incubated for 48 hrs by sulforhodamine B assay; format: functional; details: A498, 48 h; for CC50: read-out: LC50 (the source's name)
DU-145 = experiment: Growth inhibition of human DU145 cells incubated for 48 hrs by sulforhodamine B assay; format: functional; details: DU-145, 48 h; for CC50: read-out: LC50 (the source's name)
Hs-578T = experiment: Growth inhibition of human Hs 578T cells incubated for 48 hrs by sulforhodamine B assay; format: functional; details: for CC50: read-out: LC50 (the source's name)
T47D [1] = experiment: Growth inhibition of human T47D cells incubated for 48 hrs by sulforhodamine B assay; format: functional; details: for CC50: read-out: LC50 (the source's name)
MOLT-4 = experiment: Growth inhibition of human MOLT4 cells assessed as cell growth at 0.03 uM incubated for 48 hrs by sulforhodamine B assay relative to control; format: functional; details: MOLT-4, 48 h, read-out: Activity
HL-60(TB) = experiment: Growth inhibition of human HL-60(TB) cells assessed as cell growth at 0.3 uM incubated for 48 hrs by sulforhodamine B assay relative to control; format: functional; details: HL-60, 48 h, read-out: Activity
HCC 2998 = experiment: Growth inhibition of human HCC2998 cells assessed as cell growth at 0.3 uM incubated for 48 hrs by sulforhodamine B assay relative to control; format: functional; details: HCC 2998, 48 h, read-out: Activity
SF-268 = experiment: Growth inhibition of human SF268 cells assessed as cell growth at 3 uM incubated for 48 hrs by sulforhodamine B assay relative to control; format: functional; details: SF-268, 48 h, read-out: Activity
SNB-19 = experiment: Growth inhibition of human SNB19 cells assessed as cell growth at 3 uM incubated for 48 hrs by sulforhodamine B assay relative to control; format: functional; details: SNB-19, 48 h, read-out: Activity
HOP-92 = experiment: Growth inhibition of human HOP92 cells assessed as cell growth at 30 uM incubated for 48 hrs by sulforhodamine B assay relative to control; format: functional; details: HOP-92, 48 h, read-out: Activity
T47D [2] = experiment: Growth inhibition of human T47D cells assessed as cell growth at 30 uM incubated for 48 hrs by sulforhodamine B assay relative to control; format: functional; details: read-out: Activity
LOX IMVI = experiment: Growth inhibition of human LOXIMVI cells incubated for 48 hrs by sulforhodamine B assay; format: functional
[3] = molecular target: RAF proto-oncogene serine/threonine-protein kinase (Homo sapiens, UniProt P04049); experiment: Inhibition of human c-RAF using MEK1 as substrate in presence of [33P]ATP by Hotspot assay
Chain of RAF proto-oncogene serine/threonine-protein kinase (P04049 whole entry): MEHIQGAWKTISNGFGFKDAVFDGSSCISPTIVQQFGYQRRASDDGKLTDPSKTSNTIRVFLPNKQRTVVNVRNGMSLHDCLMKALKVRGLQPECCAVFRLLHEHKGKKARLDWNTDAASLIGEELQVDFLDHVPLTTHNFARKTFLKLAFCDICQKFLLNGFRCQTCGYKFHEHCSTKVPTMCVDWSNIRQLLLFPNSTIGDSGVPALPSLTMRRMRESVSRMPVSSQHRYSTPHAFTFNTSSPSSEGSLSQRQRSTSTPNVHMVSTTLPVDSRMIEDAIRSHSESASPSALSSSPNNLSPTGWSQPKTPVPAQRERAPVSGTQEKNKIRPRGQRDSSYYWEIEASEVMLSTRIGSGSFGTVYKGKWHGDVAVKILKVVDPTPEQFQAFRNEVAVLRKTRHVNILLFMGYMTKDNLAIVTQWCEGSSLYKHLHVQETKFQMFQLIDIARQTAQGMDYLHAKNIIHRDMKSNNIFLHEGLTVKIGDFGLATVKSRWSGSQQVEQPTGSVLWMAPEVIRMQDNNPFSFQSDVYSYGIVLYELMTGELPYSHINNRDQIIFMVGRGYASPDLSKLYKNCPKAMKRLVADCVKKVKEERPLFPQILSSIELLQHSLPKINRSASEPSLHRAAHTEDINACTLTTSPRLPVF

Molecule `Cc1nc2cc(O)c(O)cc2cc1Oc1ccc(NC(=O)Nc2ccc(Cl)c(Cl)c2)cc1` has a GI50 (A549) of 8.99 µM, a TGI (A549) of 26.2 µM and a CC50 (A549) of over 32.5 µM. It also gave a GI50 (HOP-62) of 8.62 µM, a TGI (HOP-62) of over 32.5 µM and a CC50 (HOP-62) of over 32.5 µM. The GI50 (NCI-H226) was 11.8 µM, the TGI (NCI-H226) was over 32.5 µM and the CC50 (NCI-H226) was over 32.5 µM. It also gave a GI50 (NCI-H322M) of 14.1 µM, a TGI (NCI-H322M) of over 32.5 µM and a CC50 (NCI-H322M) of over 32.5 µM. The GI50 (NCI-H522) was 4.43 µM, the TGI (NCI-H522) was 12.5 µM and the CC50 (NCI-H522) was over 32.5 µM. It also gave a GI50 (HCT-116) of 2.24 µM, an LC50 (50% lethal concentration) (HCT-116) of over 32.5 µM and a TGI (HCT-116) of 13.6 µM. For the same molecule, the GI50 (HCT-15) was 5.47 µM, the LC50 (lethal concentration, 50% net cell kill) (HCT-15) was over 32.5 µM and the TGI (HCT-15) was over 32.5 µM. It also gave a GI50 (HT-29) of 11.9 µM, a TGI (HT-29) of over 32.5 µM and a CC50 (HT-29) of over 32.5 µM. It also gave a GI50 (SW-620) of 4.9 µM, an LC50 (SW-620) of over 32.5 µM and a TGI (SW-620) of over 32.5 µM. For the same molecule, the GI50 (M14) was 5.97 µM, the TGI (M14) was 13.8 µM and the CC50 (M14) was 32 µM. The GI50 (SK-MEL-2) was 8.83 µM, the TGI (SK-MEL-2) was 21.1 µM and the CC50 (SK-MEL-2) was over 32.5 µM. It also gave a GI50 (SK-MEL-28) of 9 µM, a TGI (SK-MEL-28) of 30.1 µM and a CC50 (SK-MEL-28) of over 32.5 µM. It also gave a GI50 (SK-MEL-5) of 5.94 µM, a TGI (SK-MEL-5) of 14.2 µM and a CC50 (SK-MEL-5) of over 32.5 µM. It also gave a GI50 (UACC-257) of 7.27 µM, a TGI (UACC-257) of 21.3 µM and a CC50 (UACC-257) of over 32.5 µM. The GI50 (OVCAR-3) was 8.52 µM, the TGI (OVCAR-3) was 19.9 µM and the CC50 (OVCAR-3) was over 32.5 µM. It also gave a GI50 (A498) of over 32.5 µM, a TGI (A498) of over 32.5 µM and a CC50 (A498) of over 32.5 µM. For the same molecule, the GI50 (DU-145) was 7.26 µM, the TGI (DU-145) was 25.2 µM and the CC50 (DU-145) was over 32.5 µM. It also gave a GI50 (Hs-578T) of 12.8 µM, a TGI (Hs-578T) of over 32.5 µM and a CC50 (Hs-578T) of over 32.5 µM. It also gave a GI50 (T47D [1]) of 11.6 µM, a TGI (T47D [1]) of over 32.5 µM and a CC50 (T47D [1]) of over 32.5 µM. For the same molecule, the growth at 0.03 µM (MOLT-4) was 111%, the growth at 0.3 µM (HL-60(TB)) was 106% and the growth at 0.3 µM (HCC 2998) was 97%. It also gave a growth at 3 µM (SF-268) of 85%, a growth at 3 µM (SNB-19) of 96% and a growth at 30 µM (HOP-92) of -20%. For the same molecule, the growth at 30 µM (T47D [2]) was 10%.
`COc1cc2cc(Oc3ccc(NC(=O)Nc4cccc(C(F)(F)F)c4)cc3)c(C)nc2cc1OC` was tested, and the GI50 (A549) was 1.47 µM, the TGI (A549) was 6.49 µM and the CC50 (A549) was 26.6 µM. It also gave a GI50 (HOP-62) of 2.33 µM, a TGI (HOP-62) of 8.44 µM and a CC50 (HOP-62) of 24.1 µM. The GI50 (NCI-H226) was 1.8 µM, the TGI (NCI-H226) was 5.6 µM and the CC50 (NCI-H226) was 28.8 µM. It also gave a GI50 (NCI-H322M) of 2.84 µM, a TGI (NCI-H322M) of 16.6 µM and a CC50 (NCI-H322M) of over 50 µM. It also gave a GI50 (NCI-H522) of 1.32 µM, a TGI (NCI-H522) of 4.49 µM and a CC50 (NCI-H522) of 32.4 µM. The GI50 (HCT-116) was 1.46 µM, the LC50 (50% lethal concentration) (HCT-116) was 20.4 µM and the TGI (HCT-116) was 5.84 µM. It also gave a GI50 (HCT-15) of 1.85 µM, an LC50 (lethal concentration, 50% net cell kill) (HCT-15) of over 50 µM and a TGI (HCT-15) of 22.2 µM. The GI50 (HT-29) was 2.05 µM, the TGI (HT-29) was 6.26 µM and the CC50 (HT-29) was 17.8 µM. For the same molecule, the GI50 (SW-620) was 2.28 µM, the LC50 (SW-620) was over 50 µM and the TGI (SW-620) was 11.1 µM. The GI50 (LOX IMVI) was 1.84 µM, the TGI (LOX IMVI) was 6.61 µM and the CC50 (LOX IMVI; read-out: LC50 (the source's name)) was 18.3 µM. It also gave a GI50 (M14) of 1.67 µM, a TGI (M14) of 7.67 µM and a CC50 (M14) of 35.6 µM. The GI50 (SK-MEL-2) was 1.28 µM, the TGI (SK-MEL-2) was 2.87 µM and the CC50 (SK-MEL-2) was 9.93 µM. The GI50 (SK-MEL-28) was 1.97 µM, the TGI (SK-MEL-28) was 8.37 µM and the CC50 (SK-MEL-28) was 28.2 µM. For the same molecule, the GI50 (SK-MEL-5) was 1.08 µM, the TGI (SK-MEL-5) was 2.66 µM and the CC50 (SK-MEL-5) was 8.47 µM. It also gave a GI50 (UACC-257) of 1.09 µM, a TGI (UACC-257) of 3.66 µM and a CC50 (UACC-257) of 19.9 µM. It also gave a GI50 (OVCAR-3) of 2.04 µM, a TGI (OVCAR-3) of 8.07 µM and a CC50 (OVCAR-3) of 39.9 µM. The GI50 (A498) was 1.29 µM, the TGI (A498) was 4.95 µM and the CC50 (A498) was 29.7 µM. For the same molecule, the GI50 (DU-145) was 2.78 µM, the TGI (DU-145) was 15.8 µM and the CC50 (DU-145) was over 50 µM. For the same molecule, the GI50 (Hs-578T) was 1.44 µM, the TGI (Hs-578T) was 4.22 µM and the CC50 (Hs-578T) was over 50 µM. It also gave a GI50 (T47D [1]) of 1.61 µM, a TGI (T47D [1]) of 6.68 µM and a CC50 (T47D [1]) of over 50 µM. It also gave an IC50 [3] of 0.15 µM.

Reference: ChEMBL document CHEMBL3994622, “Design and synthesis of new RAF kinase-inhibiting antiproliferative quinoline derivatives. Part 2: Diarylurea derivatives” (Eur J Med Chem, 2017)
